Data taken from patent publication US8017602B2, “N-(2-(2-(5-hydroxy-3-oxo-3,4-dihydro-2H-benzo[b][1,4]oxazin-8-yl)ethylamino)ethyl)-3-(phenethoxy)propanamide derivatives, processes for their preparation, pharmaceutical compositions containing them and their use in therapy” (AstraZeneca AB, priority 2008, dated 2011).
Counter-ions that a name gives are not always drawn.

Columns and labels:
[1] = target: T1, recombinant human α1D receptor (Homo sapiens, UniProt P25100); test: Adrenergic α1D selectivity binding assay ([3H]-prazosin); settings: inhibition of [3H]-prazosin binding, HEK293 membranes, read-out: α1 bind pIC50 (converted)
T1 construct: expressed in transfected cells; host or cells: HEK293
T1 sequence (P25100 1-572): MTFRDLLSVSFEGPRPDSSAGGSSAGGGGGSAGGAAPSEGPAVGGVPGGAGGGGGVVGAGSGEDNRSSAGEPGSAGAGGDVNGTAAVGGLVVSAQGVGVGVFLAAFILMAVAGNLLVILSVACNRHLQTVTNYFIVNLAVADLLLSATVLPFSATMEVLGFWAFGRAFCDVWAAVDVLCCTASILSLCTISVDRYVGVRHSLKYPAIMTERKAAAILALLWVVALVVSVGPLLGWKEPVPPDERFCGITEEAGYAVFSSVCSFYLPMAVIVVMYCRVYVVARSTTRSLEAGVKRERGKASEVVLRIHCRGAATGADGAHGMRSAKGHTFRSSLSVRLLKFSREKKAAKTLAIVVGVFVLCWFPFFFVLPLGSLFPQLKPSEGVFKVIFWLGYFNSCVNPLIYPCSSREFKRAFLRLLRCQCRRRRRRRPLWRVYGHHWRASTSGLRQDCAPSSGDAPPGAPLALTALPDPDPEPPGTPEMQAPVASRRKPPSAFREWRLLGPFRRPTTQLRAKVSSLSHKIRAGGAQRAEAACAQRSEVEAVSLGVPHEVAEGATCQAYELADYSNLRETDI
Protocol: Membranes were prepared from human embryonic kidney 293 (HEK293) cells expressing recombinant human α1D receptor. These were diluted in Assay Buffer (50 mM HEPES, 1 mM EDTA, pH 7.4) to provide a final concentration of membranes that gave a clear window between maximum and minimum specific binding.
(§1) Assays were performed in U-bottomed 96-well polypropylene plates. 10 μl [^3H]-prazosin (0.3 nM final concentration) and 10 μl of test compound (10× final concentration) were added to each test well. For each assay plate 8 replicates were obtained for [^3H]-prazosin binding in the presence of 10 μl vehicle (10% (v/v) DMSO in Assay Buffer; defining maximum binding) or 10 μL BMY7378 (10 μM final concentration; defining non-specific binding (NSB)). Membranes were then added to achieve a final volume of 100 μL. The plates were incubated for 2 h at room temperature and then filtered onto PEI coated GF/B filter plates, pre-soaked for 1 h in Assay Buffer, using a 96-well plate Tomtec cell harvester. Five washes with 250 μl wash buffer (50 mM HEPES, 1 mM EDTA, pH 7.4) were performed at 4° C. to remove unbound radioactivity. The plates were dried then sealed from underneath using Packard plate sealers and MicroScint-O (50 μl) was added to each well. The plates were sealed (TopSeal A) and filter-bound radioactivity was measured with a scintillation counter (TopCount, Packard BioScience) using a 3-minute counting protocol.
(§2) Total specific binding (B0) was determined by subtracting the mean NSB from the mean maximum binding. NSB values were also subtracted from values from all other wells. […] Data was fitted to a four parameter logistic equation to determine the compound potency, which was expressed as pIC50 (negative log molar concentration inducing 50% inhibition of [^3H]-prazosin binding).

[2] = target: T2, recombinant human adrenergic beta 1 receptors (Homo sapiens, UniProt P08588); test: Adrenergic β1 selectivity binding assay ([125I]-Iodocyanopindolol); settings: inhibition of [125I]-Iodocyanopindolol binding, human β1 membranes; read-out: β1 bind p IC50 (converted)
T2 construct: purchased Euroscreen
T2 sequence (P08588 whole entry): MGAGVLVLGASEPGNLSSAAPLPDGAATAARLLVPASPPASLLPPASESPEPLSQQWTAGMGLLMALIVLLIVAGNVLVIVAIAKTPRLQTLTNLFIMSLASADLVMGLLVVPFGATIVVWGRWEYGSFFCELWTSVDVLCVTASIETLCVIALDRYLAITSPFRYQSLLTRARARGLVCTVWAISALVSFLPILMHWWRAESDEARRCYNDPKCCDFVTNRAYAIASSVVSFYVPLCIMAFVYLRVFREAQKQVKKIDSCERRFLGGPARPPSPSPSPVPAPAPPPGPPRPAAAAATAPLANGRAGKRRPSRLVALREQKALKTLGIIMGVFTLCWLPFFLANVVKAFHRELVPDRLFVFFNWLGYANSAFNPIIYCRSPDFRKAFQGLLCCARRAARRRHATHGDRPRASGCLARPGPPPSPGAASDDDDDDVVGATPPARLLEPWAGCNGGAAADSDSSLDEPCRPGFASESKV
Protocol: (§3) Membranes containing recombinant human adrenergic beta 1 receptors were obtained from Euroscreen. These were diluted in Assay Buffer (50 mM HEPES, 1 mM EDTA, 120 mM NaCl, 0.1% gelatin, pH 7.4) to provide a final concentration of membranes that gave a clear window between maximum and minimum specific binding.
as §1, with “plates. 10 μL [^125I]-Iodocyanopindolol (0.036 nM final” for “plates. 10 μl [^3H]-prazosin (0.3 nM final”, “and 10 μL of test” for “and 10 μl of test”, “obtained for [^125I]-Iodocyanopindolol binding in” for “obtained for [^3H]-prazosin binding in”, “or 10 μl Propranolol (10 μM” for “or 10 μL BMY7378 (10 μM”, “with 250 μL wash buffer” for “with 250 μl wash buffer”, “mM EDTA, 120 mM NaCl, pH 7.4)” for “mM EDTA, pH 7.4)”
as §2, with “[^125I]-Iodocyanopindolol” for “[^3H]-prazosin”

[3] = target: T3, recombinant human Dopamine Subtype D2s receptors (Homo sapiens, UniProt P14416); test: Dopamine D2 selectivity binding assay ([3H]-spiperone); settings: inhibition of [3H]-spiperone binding, human D2s membranes; read-out: D2 bind pIC50 (converted)
T3 construct: purchased Perkin Elmer
T3 sequence (P14416 1-414 isoform P14416-2): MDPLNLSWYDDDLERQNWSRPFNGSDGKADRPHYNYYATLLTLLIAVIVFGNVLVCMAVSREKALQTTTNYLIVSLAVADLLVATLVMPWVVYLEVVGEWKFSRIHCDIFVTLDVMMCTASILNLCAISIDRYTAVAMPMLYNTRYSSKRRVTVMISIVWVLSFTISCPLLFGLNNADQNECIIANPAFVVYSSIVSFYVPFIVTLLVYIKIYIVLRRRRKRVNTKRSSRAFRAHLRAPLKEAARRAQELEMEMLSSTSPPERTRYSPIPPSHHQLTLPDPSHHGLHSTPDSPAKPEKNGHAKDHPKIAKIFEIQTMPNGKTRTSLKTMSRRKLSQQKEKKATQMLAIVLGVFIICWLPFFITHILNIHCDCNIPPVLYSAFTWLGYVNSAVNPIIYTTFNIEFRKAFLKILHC
Protocol: as §3, with “Dopamine Subtype D2s” for “adrenergic beta 1”, “Perkin Elmer.” for “Euroscreen.”
Assays were performed in U-bottomed 96-well polypropylene plates. 30 μL [^3H]-spiperone (0.16 nM final concentration) and 30 μl of test compound (10× final concentration) were added to each test well. For each assay plate 8 replicates were obtained for [^3H]-spiperone binding in the presence of 30 μL vehicle (10% (v/v) DMSO in Assay Buffer; defining maximum binding) or 30 μl Haloperidol (10 μM final concentration; defining non-specific binding (NSB)). Membranes were then added to achieve a final volume of 300 μL. The plates were incubated for 2 h at room temperature and then filtered onto PEI coated GF/B filter plates, pre-soaked for 1 h in Assay Buffer, using a 96-well plate Tomtec cell harvester. Five washes with 250 μl wash buffer (50 mM HEPES, 1 mM EDTA, 120 mM NaCl, pH 7.4) were performed at 4° C. to remove unbound radioactivity. The plates were dried then sealed from underneath using Packard plate sealers and MicroScint-O (50 μl) was added to each well. The plates were sealed (TopSeal A) and filter-bound radioactivity was measured with a scintillation counter (TopCount, Packard BioScience) using a 3-minute counting protocol.
as §2, with “[^3H]-spiperone” for “[^3H]-prazosin”

In the case of `CC(C)[C@@H](C)N(CCNCCc1ccc(O)c2c1OCC(=O)N2)C(=O)CCOCCc1cccc(-c2cnn(C)c2)c1` [Example 09, (R)—N-(2-(2-(5-Hydroxy-3-oxo-3,4-dihydro-2H-benzo[b][1,4]oxazin-8-yl)ethylamino)ethyl)-3-(3-(1-methyl-1H-pyrazol-4-yl)phenethoxy)-N-(3-methylbutan-2-yl)propanamide Trifluoroacetic Acid Salt], the IC50 [1] is reported as 1 µM, the IC50 [2] is reported as greater than 10 µM and the IC50 [3] is reported as greater than 10 µM.
Compound `Cc1nc(-c2cccc(CCOCCC(=O)N(CCNCCc3ccc(O)c4c3OCC(=O)N4)C3CCCCC3)c2)no1` [Example 27, N-Cyclohexyl-N-(2-(2-(5-hydroxy-3-oxo-3,4-dihydro-2H-benzo[b][1,4]oxazin-8-yl)ethylamino)ethyl)-3-(3-(5-methyl-1,2,4-oxadiazol-3-yl)phenethoxy)propanamide Trifluoroacetic Acid Salt] has an IC50 [1] of 1 µM, an IC50 [2] greater than 10 µM and an IC50 [3] greater than 5.01 µM.
With `Cn1cc(-c2cc(CCOCCC(=O)N(CCNCCc3ccc(O)c4c3OCC(=O)N4)C3CCCCC3)ccc2F)cn1` [Example 13, N-Cyclohexyl-3-(4-fluoro-3-(1-methyl-1H-pyrazol-4-yl)phenethoxy)-N-(2-(2-(5-hydroxy-3-oxo-3,4-dihydro-2H-benzo[b][1,4]oxazin-8-yl)ethylamino)ethyl)propanamide Trifluoroacetic Acid Salt] the IC50 [1] was 0.631 µM, the IC50 [2] was 6.31 µM and the IC50 [3] was 3.16 µM.
`O=C1COc2c(CCNCCN(C(=O)CCOCCc3cccc(-c4cnn(CC5CC5)c4)c3)C3CCCC3)ccc(O)c2N1` [Example 19, N-Cyclopentyl-3-(3-(1-(cyclopropylmethyl)-1H-pyrazol-4-yl)phenethoxy)-N-(2-(2-(5-hydroxy-3-oxo-3,4-dihydro-2H -benzo[b][1,4]oxazin-8-yl)ethylamino)ethyl)propanamide Trifluoroacetic Acid Salt] showed an IC50 [1] of 1 µM, an IC50 [2] of 3.98 µM and an IC50 [3] of 2.51 µM.
In the case of `O=C1COc2c(CCNCCN(C(=O)CCOCCc3cccc(-c4nn[nH]n4)c3)C3CCCCC3)ccc(O)c2N1` [Example 15, 3-(3-(2H-Tetrazol-5-yl)phenethoxy)-N-cyclohexyl-N-(2-(2-(5-hydroxy-3-oxo-3,4-dihydro-2H-benzo[b][1,4]oxazin-8-yl)ethylamino)ethyl)propanamide Trifluoroacetic Acid Salt], the IC50 [1] is reported as greater than 10 µM, the IC50 [2] is reported as greater than 10 µM and the IC50 [3] is reported as greater than 10 µM.
With `Cc1nc(-c2cccc(CCOCCC(=O)N(CCNCCc3ccc(O)c4c3OCC(=O)N4)C3CCCCC3)c2)cn1C` [Example 35, N-Cyclohexyl-3-(3-(1,2-dimethyl-1H-imidazol-4-yl)phenethoxy)-N-(2-(2-(5-hydroxy-3-oxo-3,4-dihydro-2H-benzo[b][1,4]oxazin-8-yl)ethylamino)ethyl)propanamide Trifluoroacetic Acid Salt] the IC50 [1] was 2 µM, the IC50 [2] was greater than 10 µM and the IC50 [3] was 3.16 µM.
`Cn1cc(-c2cccc(CCOCCC(=O)N(CCNCCc3ccc(O)c4c3OCC(=O)N4)C3CCCCCC3)c2)cn1` [Example 31, N-Cycloheptyl-N-(2-(2-(5-hydroxy-3-oxo-3,4-dihydro-2H-benzo[b][1,4]oxazin-8-yl)ethylamino)ethyl)-3-(3-(1-methyl-1H-pyrazol-4-yl)phenethoxy)propanamide Trifluoroacetic Acid Salt] showed an IC50 [1] of 0.398 µM, an IC50 [2] of 5.01 µM and an IC50 [3] of 3.98 µM.
With `Cn1nnc(-c2cccc(CCOCCC(=O)N(CCNCCc3ccc(O)c4c3OCC(=O)N4)C3CCCCC3)c2)n1` [Example 07, N-Cyclohexyl-N-(2-(2-(5-hydroxy-3-oxo-3,4-dihydro-2H-benzo[b][1,4]oxazin-8-yl)ethylamino)ethyl)-3-(3-(2-methyl-2H-tetrazol-5-yl)phenethoxy)propanamide Trifluoroacetic Acid Salt] the IC50 [1] was 1 µM, the IC50 [2] was greater than 10 µM and the IC50 [3] was 6.31 µM.
Work on `CCC[C@@H](C)N(CCNCCc1ccc(O)c2c1OCC(=O)N2)C(=O)CCOCCc1cccc(-c2cnn(C(C)C)c2)c1` [Example 21, (R)—N-(2-(2-(5-Hydroxy-3-oxo-3,4-dihydro-2H-benzo[b][1,4]oxazin-8-yl)ethylamino)ethyl)-3-(3-(1-isopropyl-1H-pyrazol-4-yl)phenethoxy)-N-(pentan-2-yl)propanamide Trifluoroacetic Acid Salt] yielded an IC50 [1] of 0.794 µM, an IC50 [2] of 6.31 µM and an IC50 [3] of 3.16 µM.
Compound `O=C1COc2c(CCNCCN(C(=O)CCOCCc3cccc(-c4cnco4)c3)C3CCCCC3)ccc(O)c2N1` [Example 10, N-Cyclohexyl-N-(2-(2-(5-hydroxy-3-oxo-3,4-dihydro-2H-benzo[b][1,4]oxazin-8-yl)ethylamino)ethyl)-3-(3-(oxazol-5-yl)phenethoxy)propanamide Trifluoroacetic Acid Salt] has an IC50 [1] of 0.316 µM, an IC50 [2] of 6.31 µM and an IC50 [3] of 1 µM.
With `Cn1nnnc1-c1cccc(CCOCCC(=O)N(CCNCCc2ccc(O)c3c2OCC(=O)N3)C2CCCCC2)c1` [Example 08, N-Cyclohexyl-N-(2-(2-(5-hydroxy-3-oxo-3,4-dihydro-2H-benzo[b][1,4]oxazin-8-yl)ethylamino)ethyl)-3-(3-(1-methyl-1H-tetrazol-5-yl)phenethoxy)propanamide Trifluoroacetic Acid Salt] the IC50 [1] was 3.98 µM, the IC50 [2] was greater than 10 µM and the IC50 [3] was 3.16 µM.
